Reference: ChEMBL document CHEMBL2412995, “Design, synthesis and in vitro evaluation against human cancer cells of 5-methyl-5-styryl-2,5-dihydrofuran-2-ones, a new series of goniothalamin analogues” (2013)

Key:
Format in all cases: functional
UACC-62 = test: Antiproliferative activity against human UACC62 cells assessed as concentration required for total cell growth inhibition after 48 hrs by SRB assay; conditions: UACC-62, 48 h
MCF7 = test: Antiproliferative activity against human MCF7 cells assessed as concentration required for total cell growth inhibition after 48 hrs by SRB assay; conditions: MCF7, 48 h
U-251 = test: Antiproliferative activity against human U251 cells assessed as concentration required for total cell growth inhibition after 48 hrs by SRB assay; conditions: U-251, 48 h
HT-29 = test: Antiproliferative activity against human HT-29 cells assessed as concentration required for total cell growth inhibition after 48 hrs by SRB assay; conditions: HT-29, 48 h
PC-3 = test: Antiproliferative activity against human PC3 cells assessed as concentration required for total cell growth inhibition after 48 hrs by SRB assay; conditions: PC-3, 48 h
K562 = test: Antiproliferative activity against human K562 cells assessed as concentration required for total cell growth inhibition after 48 hrs by SRB assay; conditions: K562, 48 h
HaCaT = test: Antiproliferative activity against human HaCaT cells assessed as concentration required for total cell growth inhibition after 48 hrs by SRB assay
786-0 = test: Antiproliferative activity against human 786-0 cells assessed as concentration required for total cell growth inhibition after 48 hrs by SRB assay; conditions: 786-0, 48 h
[1] = Antiproliferative activity against human NCI-ADR-RES cells assessed as concentration required for total cell growth inhibition after 48 hrs by SRB assay

Row | SMILES | TGI (UACC-62) | TGI (MCF7) | TGI (U-251) | TGI (HT-29) | TGI (PC-3) | TGI (K562) | TGI (HaCaT) | TGI (786-0) | TGI [1]
1 | CC1(/C=C/c2ccc(F)cc2)C=CC(=O)O1 (stereo not given) | 55.3 µM | 38.5 µM | 60.8 µM | 34.9 µM | 46.5 µM | > 1000 µM | 47.5 µM | 101 µM | 25.7 µM
2 | COc1cc(OC)c(OC)cc1/C=C/C1(C)C=CC(=O)O1 (stereo not given) | 127 µM | 144 µM | 160 µM | 127 µM | 184 µM | > 1000 µM | 180 µM | 205 µM | 158 µM
3 | O=C1C=CC[C@H](/C=C/c2ccccc2)O1 [GONIOTHALAMIN] | 17.4 µM | 11.2 µM | 9.8 µM | 10 µM | 9.6 µM | 927 µM | 13.4 µM | 13.9 µM | 14.5 µM
4 | COc1cccc2c1C(=O)c1c(O)c3c(c(O)c1C2=O)C[C@@](O)(C(=O)CO)C[C@@H]3O[C@H]1C[C@H](N)[C@H](O)[C@H](C)O1 [DOXORUBICIN] | 0.2 µM | 4.9 µM | 2.1 µM | 3.6 µM | 2.5 µM | 45.5 µM | 0.4 µM | 1 µM | 10.3 µM
5 | COc1cccc(/C=C/C2(C)C=CC(=O)O2)c1 (stereo not given) | 55.8 µM | 25.3 µM | 37.6 µM | 17 µM | 31.6 µM | > 1000 µM | 5.7 µM | 70 µM | 48.6 µM
6 | COc1ccc(/C=C/C2(C)C=CC(=O)O2)c(OC)c1 (stereo not given) | 80.1 µM | 43.5 µM | 62.8 µM | 57.5 µM | 63.5 µM | > 1000 µM | 53.6 µM | 108 µM | 151 µM
7 | COc1ccc(/C=C/C2(C)C=CC(=O)O2)c(OC)c1OC (stereo not given) | 71.5 µM | 110 µM | 87.2 µM | 133 µM | 90 µM | > 1000 µM | 217 µM | 132 µM | 349 µM
8 | COc1cc(OC)c(/C=C/C2(C)C=CC(=O)O2)c(OC)c1 (stereo not given) | 208 µM | 102 µM | 193 µM | 127 µM | 239 µM | > 1000 µM | 458 µM | 459 µM | 229 µM
9 | CC1(/C=C/c2ccc(O)cc2)C=CC(=O)O1 (stereo not given) | 55.3 µM | 69.1 µM | 107 µM | 122 µM | 138 µM | > 1000 µM | 81.2 µM | 143 µM | 111 µM
10 | COc1ccccc1/C=C/C1(C)C=CC(=O)O1 (stereo not given) | 31 µM | 27 µM | 41.1 µM | 30.8 µM | 34.2 µM | 860 µM | 30.8 µM | 35.4 µM | 64.5 µM
11 | COc1ccc(/C=C/C2(C)C=CC(=O)O2)cc1OC (stereo not given) | 84.1 µM | 78.9 µM | 192 µM | 927 µM | 176 µM | > 1000 µM | 838 µM | 22.9 µM | 111 µM
12 | CC1(/C=C/c2ccc(C(F)(F)F)cc2)C=CC(=O)O1 (stereo not given) | 15.5 µM | 20.4 µM | 15.7 µM | 12.3 µM | 13.1 µM | 652 µM | 12.1 µM | 34 µM | 9.4 µM
13 | CC1(/C=C/c2ccccc2C(F)(F)F)C=CC(=O)O1 (stereo not given) | 17.7 µM | 13.5 µM | 14.1 µM | 15.8 µM | 17.9 µM | 573 µM | 12.7 µM | 27.9 µM | 12.2 µM
14 | C[C@]1(/C=C/c2ccccc2)CC=CC(=O)O1 | 37.2 µM | 48 µM | 27.5 µM | 41.1 µM | 31.7 µM | > 1000 µM | 50.7 µM | 68.7 µM | 107 µM
15 | CC1(/C=C/c2cccc(O)c2)C=CC(=O)O1 (stereo not given) | 108 µM | 124 µM | 118 µM | 97.4 µM | 98.8 µM | > 1000 µM | 88.1 µM | 196 µM | 647 µM
16 | CC1(/C=C/c2ccccc2)C=CC(=O)O1 (stereo not given) | 97.2 µM | 95.3 µM | 89.8 µM | 123 µM | 86.9 µM | > 1000 µM | 119 µM | 170 µM | 414 µM
17 | CC1(/C=C/c2ccccc2O)C=CC(=O)O1 (stereo not given) | 92.5 µM | 46.2 µM | 70.9 µM | 31.3 µM | 112 µM | > 1000 µM | 57.3 µM | 136 µM | 78 µM
18 | COc1cc(/C=C/C2(C)C=CC(=O)O2)cc(OC)c1O (stereo not given) | 24.6 µM | 45.3 µM | 40.7 µM | 19.1 µM | 131 µM | > 1000 µM | 64.4 µM | 108 µM | 51.6 µM
19 | COc1cc(/C=C/C2(C)C=CC(=O)O2)cc(OC)c1OC (stereo not given) | 178 µM | 56.6 µM | 125 µM | 390 µM | 131 µM | > 1000 µM | 175 µM | 116 µM | 123 µM
20 | COc1ccc(/C=C/C2(C)C=CC(=O)O2)cc1 (stereo not given) | 147 µM | 183 µM | 127 µM | 92.9 µM | 145 µM | > 1000 µM | 316 µM | > 1000 µM | > 1000 µM
